Test results taken from US10722599B2, “Lipid assemblies and uses thereof and some pH and electrostatic modulating lipids to be used in said assemblies” (Yissum Research Development Company of the Hebrew …, priority 2015, dated 2020).
Read-outs that look alike come from different tables or passages of the source.

Key:
[1] = test system: orthotopic intraperitoneal tumors of SKOV-3 human ovarian adenocarcinoma cells; test: In vivo SKOV model: miR-34a accumulation in tumor (Ampholip 1); settings: IP, 7 mg/kg miRNA, days 20, 22, 25, tumors 24 h after last dose, 'miR-34a-SL' = DOPC/Ampholip1/miR-34a-SL (2M), folate formulation = DOPC/Ampholip1/Folate/miR-34a (1M)
Method: (§1) In vivo bio-distribution and activity of miR-34a or siRNA formulated with DOPC/Ampholip was evaluated in female nude mice bearing orthotopic intraperitoneal tumors of SKOV-3 human ovarian adenocarcinoma cells.
(§2) This experiment intended to assess the bio-distribution and activity of amphoteric liposomes/miR34a and amphoteric liposomes/miR-34a-SL. To this end, experimental model female nude mice bearing the orthotopic tumors received three series of repeated intraperitoneal (IP) injections (at days 20, 22 and 25) with amphoteric liposomes/miRNA in concentration of 7 mg/kg of miRNA. Twenty-four hours after the last dose the tumors were removed, and RNA extracted.

[2] = test system: orthotopic intraperitoneal tumors of SKOV-3 human ovarian adenocarcinoma cells; settings: mouse, in vivo, ip, 7 mg/kg
Method: as §1, §2

[3] = in vivo, iv, 1 mg/kg
Method: (§3) Three animals were injected IV in each group with a dose of 1 mg/kg. Plasma was isolated at serial time points: pre-dosing (time 0), 10 minutes, 30 minutes, 1 hour, 2 hours 4 hours, 6 hours and 24 hours. RNA was extracted from the plasma according to Rosetta Genomics' protocol of miRNA isolation from fluids. qPCR was done for miR-34a, normalized to selected miRNAs: hsa-miR-16-5p, hsa-miR-103a-3p and hsa-miR-23a-3p.

[4] = test system: BALB/c mice; test: In vivo toxicity, single IV escalating dose; settings: as formulated siRNA, Ampholip1 up to 10 mg/kg, Ampholip2 up to 5 mg/kg, 24 hours and 7 days
Method: Each group comprised six (6) males and six (6) females BALB/cOlaHsd mice, where half of each group (3 males and 3 females) were assigned to 24 hours or 7 days termination time points, respectively. Animals were subjected to clinical hematology and biochemistry assessment at 24 hours and 7 days post dosing, followed by gross macroscopic examination. The following parameters were evaluated for toxicity: mortality, clinical signs, body weight, weight gain, hematology and biochemistry tests.

[5] = PK study with formulated miRNA; settings: 71%-14%, from plasma levels at 30 minutes
Method: as §3

miR-34a-SL: hsa-miR-34a conjugated to sphingolipid, SEQ ID NO 1 and 3 (chain 1 UGGCAGUGUCUUAGCUGGUUGU; chain 2 CAAUCAGCAAGUAUACUGCCCU; sphingolipid conjugate, position not given here; listed as Homo sapiens)
fold enrichment of miR-34a in tumor relative to the negative controls [1]: 604 fold
fold enrichment of miR-34a in tumor relative to the negative controls [2]: two
share in circulation at 30 minutes relative to 10 minutes [3]: 14%

CCCCCCCCCCCCC/C=C/[C@@H](O)[C@H](COC(=O)NCCCNCCCCNCCCNC(=O)CCC(=O)O)NC(=O)CCCCCCCCCCCCCCC [Ampholip 2, Carboxy-N-palmitoyl-D-erythro-sphingosyl-1-carbamoyl spermine]
gross pathological findings [4]: no gross pathological findings
mortality, clinical signs, body weight, weight gain, hematology and biochemistry vs saline-treated groups [4]: No significant statistical difference

miR-34a: hsa-miR-34a naked (non-conjugated) duplex, SEQ ID NO 1 and 2 (chain 1 UGGCAGUGUCUUAGCUGGUUGU; chain 2 ACAAUCAGCAAGUAUACUGCCC; further chemistry not given here; listed as Homo sapiens)
estimate of encapsulation [5]: 57%
plasma stability / bioavailability of miR-34a, in words [3]: rapidly degraded
